Source: publication PMC11649784, “Re-design and evaluation of diclofenac-based carborane-substituted prodrugs and their anti-cancer potential” (Scientific Reports, 2024)

What was measured:
HCT116 cells = experiment: Crystal violet (CV) viability assay, HCT116; type: cell-based, human; settings: 72 h, mean±SD; read-out: IC50 [μM] (n = 3) HCT116 CV
Protocol: (§1) In a preliminary test, the stability of all compounds dissolved in the cell medium (c = 100 μM, T = [drawing 47] ) for 72 h was validated by HPLC (see Supporting Information). Cell lines were incubated with the respective compounds in a concentration range of 1.56–100 μM for 72 h, and cell viability was measured using 3-(4,5-dimethylthiazol-2-yl)-2,5-diphenyltetrazolium bromide (MTT) and crystal violet (CV) assays. […] As MTT tests gave inconsistent results, possibly due to interference of the compound with mitochondrial respiration, for the further evaluation only the CV results are considered[97],[98].
(§2) The biological study was performed on a murine colon adenocarcinoma cell line (MC38), two human colorectal carcinoma cell lines (HCT116 and HT29), and a human fetal lung fibroblast cell line (MRC-5). All cell lines are commercially available and were obtained from the American Type Culture Collection (ATCC). The human cell lines were kept in HEPES-buffered RPMI-1640 medium supplemented with 10 [drawing 141] heat-inactivated FCS, 2 mM L-glutamine, 0.01 [drawing 142] sodium pyruvate, penicillin (100 units mL^−1), and, streptomycin ( [drawing 143] mL^-1). The MC38 cell line was maintained in DMEM medium additionally supplemented with 1 [drawing 144] non-essential amino acids. Cells were grown at [drawing 145] in a humidified atmosphere with 5 [drawing 146] [drawing 147] . Peritoneal exudate cells (PECs) were isolated from healthy C57BL/6 mice (males, n = 3, 3 months old, weight 22–25 g) by performing an ice-cold PBS peritoneal lavage. Mice were sacrificed by cervical dislocation. Cells were cultivated for 4 h when nonadherent population was removed by washing in PBS, and additionally cultivated overnight in HEPES-buffered RPMI-1640 medium supplemented with 5 [drawing 148] heat-inactivated FCS before treatment with experimental drugs. Animal handling and protocol for isolation of PECs were performed according to European Union rules, and the ARRIVE guidelines 2.0.
(§3) For the viability tests, MC38, HCT116, and HT29 cells were seeded in 96-well plates at a density of 2 [drawing 149] 103, 5 [drawing 150] 103, and 6 [drawing 151] 10^3 cells/well, respectively. To determine whether the drug affected the viability of healthy, non-malignant cells, MRC-5 and PECs were seeded in 96-well plates at a density of 8 [drawing 152] 103 and 2 [drawing 153] 10^5 cells/well, respectively. For the flow cytometric analyses, MC38 cells were seeded in 6-well plates at 5 [drawing 154] 10^4 cells/well. For morphological assessment of nuclei and the detection of autophagy, MC38 cells were seeded in 2-well chamber slides at 1.5 [drawing 155] 10^4 cells/well.
(§4) After 72 h, cell viability was determined using MTT and CV tests. First, the supernatant from the wells was discarded and the cells were incubated with an MTT solution (0.5 mg mL^−1). After half an hour, the purple formazan crystals formed were dissolved in DMSO. For CV staining of the cells, the cells were fixed with 4 [drawing 157] PFA for 10 min and then stained with a 0.02 [drawing 158] CV solution for 15 min, all at room temperature (RT). The cells were then washed with tap water, air-dried and the dye was dissolved in 33 [drawing 159] acetic acid. For both viability tests, the absorbance of the developed colors was measured using an automated microplate reader at 570 nm with a reference wavelength of 670 nm. The results were expressed as a percentage of the control values of the untreated cells, which were arbitrarily set at 100 [drawing 160] . IC50 values, defined as 50 [drawing 161] inhibitory concentration, were calculated using a four-parameter logistic function and presented as mean±SD. All biological experiments were performed in triplicates. To evaluate the nature of the detected autophagy, a combined treatment with compound 3 and the autophagy inhibitors chloroquine (Chlq) and 3-methyladenine (3-MA) was carried out. […] After 72 h, cell viability was determined by CV assay.

[1] = Stability in cell culture medium by HPLC; type: physicochemical
Protocol: as §1
Selg et al. Supp. Information
2 Stability Tests for Compound 3
In a 1 mL Eppendorf vial, 10 μL (0.05 μmol) of a freshly prepared 5 mM stock solution of compound 3 in DMSO was mixed with 490 μL of DMEM (Dulbecco's Modified Eagle Medium) containing 10% of fetal bovine serum and stored in an incubation oven at 40 °C for a total 72 hours. After 0, 24 and 72 hours, a 50 μL sample was collected from the mixture and diluted with 250 μL acetonitrile in a 500 μL Eppendorf vial to precipitate the proteins. The mixture was vortexed for 30 s before it was centrifuged for 20 min at 15,000 min-1 and 4 °C. […]
Figure S 2. […] Samples measured at 0, 24 and 72 hours (top to bottom) including the mass spectrum (right) and integration data (bottom). […]

MC38 cells = experiment: DHR 123 ROS/RNS production, flow cytometry; type: cell-based, murine; settings: IC50 concentration, 72 h
Protocol: For all flow cytometric analyses, MC38 cells were seeded overnight and then treated with the IC50 concentration of compound 3 for 72 h. The cells were harvested, washed, and stained according to the manufacturer’s instructions for each method. To determine whether the compound induces apoptosis, cells were double stained with AnnV-FITC and PI (15 μg mL^–1) for 15 min at RT in the dark. To detect caspase activity, cells were stained with the FITC-conjugated caspase inhibitor ApoStat for 30 min at [drawing 162] . To detect cell proliferation, MC38 cells were stained with CFSE (1 μM) for 10 min at [drawing 163] prior to seeding and then treated as previously described. To detect intracellular production of Reactive oxygen/nitrogen Species (ROS/RNS), MC38 cells were prestained with DHR 123 (1 [drawing 164] M) for 20 min at [drawing 165] , then seeded and exposed to an IC50 concentration of compound 3. After 72 h incubation, all samples were washed, resuspended in PBS and fluorescence intensity was analyzed using a CytoFLEX [drawing 166] flow cytometer (Beckman Coulter, Pasadena, CA, USA), while the data obtained was evaluated using the [drawing 167] software program.

HT29 cells = experiment: MTT viability assay, HT29; type: cell-based, human; settings: 72 h, mean±SD; read-out: IC50 [μM] (n = 3) HT29 MTT
Protocol: as §1, §2, §3, §4

[2] = Stability in solution, air and moisture; settings: storage

## 1-[2-(7,8-dicarba-nido-undecaborate)]- [drawing 126] H-indolium-2-amine [compound 3]
HCT116 cells
  IC50: 11.5 ± 1 µM
[1]; 100 μM, 72 h, compound 3: DMEM with 10% fetal bovine serum, 40 °C, 0, 24 and 72 hours
  stability in cell medium by HPLC: no signs of decomposition
[1]; DMEM with 10% fetal bovine serum, 40 °C, 72 hours
  purity (relative area of integrals) after 72 hours in culture medium: above 95%
MC38 cells
  production of ROS/RNS (DHR 123): strongly depleted
HT29 cells
  IC50: 17 ± 1.6 µM
[2]
  stability in air and moisture: stable in air and moisture
